Reference: paper PMC6169004, “In vitro pro-inflammatory enzyme inhibition and anti-oxidant potential of selected Sri Lankan medicinal plants” (BMC Complementary and Alternative Medicine, 2018)

Target: T1, A5-LOX (soybean); arachidonate-5-lipoxygenase
T1 construct: gene LOX1.1; most likely lipoxygenase-1
Test: spectrophotometric, absorbance at […] nm
Assay type: biochemical, Glycine max
Conditions: linoleic acid substrate ([…] μL of […]), sodium phosphate pH […] °C, […] min preincubation

O=c1cc(-c2ccccc2)oc2cc(O)c(O)c(O)c12 [Baicalein]
Anti-A5-LOX activity IC50 (μg mL^- 1): 1.76 ± 0.15 μg mL^− 1
